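Step 1: Grow cells in 96-well plates. Step 2: Expose to compound for 48 hours at 5 concentrations. Step 3: Interpolate endpoints linearly; if unreached, use highest concentration. GI50: concentration for 50% inhibition of growth. TGI denotes the concentration required for complete inhibition of growth.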

Among the test systems are UACC-62 melanoma; LOX IMVI melanoma; BT-549 breast; SF-539 CNS; A549 NSCLC; HCC-2998 colon; NCI-H226 lung; CCRF-CEM leukemia.
Holding throughout (assay): NCI anticancer screen, dose series, 48 h

For the compound `O=C1CCCCCCCC/C=C/CCC(c2ccco2)O1` (stereo not drawn), the GI50 with UACC-62 melanoma is 26.2 µM; in the assay on LOX IMVI melanoma, 35.3 µM; with BT-549 breast, 37.1 µM; in the assay on SF-539 CNS, 60.5 µM; in the assay on A549 NSCLC it was more than 100 µM; with HCC-2998 colon, more than 100 µM. Further, the GI50 was 34.8 µM with NCI-H226 lung and 27 µM with CCRF-CEM leukemia. Besides, the TGI in the assay on UACC-62 melanoma was more than 100 µM; with LOX IMVI melanoma, 87.3 µM; in the assay on BT-549 breast, more than 100 µM; with SF-539 CNS, more than 100 µM; in the assay with A549 NSCLC it was more than 100 µM; with HCC-2998 colon, more than 100 µM. For the same compound, the TGI with NCI-H226 lung and in the assay with CCRF-CEM leukemia was more than 100 µM each time.

As to `CN1c2ccccc2C(=O)NC12CCN(Cc1ccccc1)CC2`, the TGI with UACC-62 melanoma, in the assay with LOX IMVI melanoma, in the assay on SF-539 CNS, in the assay with A549 NSCLC, with HCC-2998 colon and in the assay with NCI-H226 lung was more than 100 µM throughout. In the assay with CCRF-CEM leukemia, this compound gave a TGI of more than 100 µM.

As to `COc1ccc(C2=NN(C(=O)COc3ccc(Cl)cc3)C(O)(c3cc(F)c(Cl)cc3Cl)C2)cc1OC` (stereo not drawn), the GI50 with UACC-62 melanoma is 5.6 µM; in the assay with LOX IMVI melanoma it was 1.4 µM; with BT-549 breast, 2.75 µM; with SF-539 CNS, 1.81 µM; in the assay on A549 NSCLC it was 6.24 µM; with HCC-2998 colon it was 3.91 µM. Besides, the GI50 in the assay on NCI-H226 lung is 2.84 µM; in the assay on CCRF-CEM leukemia it was 0.218 µM. In addition, the TGI in the assay with UACC-62 melanoma is 18.7 µM; with LOX IMVI melanoma, 2.78 µM; with BT-549 breast, 10.7 µM; in the assay on SF-539 CNS it was 3.55 µM; in the assay with A549 NSCLC, 18.7 µM; in the assay with HCC-2998 colon, 13.3 µM. In addition, the TGI in the assay with NCI-H226 lung is 8.24 µM; with CCRF-CEM leukemia, 1.8 µM.

For the compound `COC(=O)COc1ccc(/C=C2\N=C(c3ccccc3)N(c3cc(C(F)(F)F)ccc3Cl)C2=O)cc1`, the GI50 in the assay on UACC-62 melanoma was more than 100 µM; in the assay on LOX IMVI melanoma it was 21.8 µM; with BT-549 breast it was 28.1 µM; in the assay with SF-539 CNS, 36 µM; with A549 NSCLC, more than 100 µM; with HCC-2998 colon, 64 µM. The GI50 in the assay on NCI-H226 lung was 52.2 µM. Also, the TGI is more than 100 µM in the assay with UACC-62 melanoma; 53.3 µM in the assay on LOX IMVI melanoma; 94.2 µM with BT-549 breast; more than 100 µM in the assay with SF-539 CNS; more than 100 µM in the assay with A549 NSCLC; more than 100 µM in the assay with HCC-2998 colon. For the same compound, the TGI with NCI-H226 lung was more than 100 µM.

With `CC(=O)Nc1nc(SCc2ccccc2)c2ncn(C(C)=O)c2n1`, the GI50 in the assay with UACC-62 melanoma is 61.8 µM; in the assay with LOX IMVI melanoma it was 75.1 µM; with BT-549 breast, 85.3 µM; in the assay with SF-539 CNS, 97.7 µM; with A549 NSCLC, more than 100 µM; in the assay with HCC-2998 colon it was more than 100 µM. Also, the GI50 with NCI-H226 lung was 45.4 µM; in the assay with CCRF-CEM leukemia it was more than 100 µM. Further, the TGI in the assay with UACC-62 melanoma, in the assay on LOX IMVI melanoma, in the assay with BT-549 breast, in the assay on SF-539 CNS, with A549 NSCLC and in the assay with HCC-2998 colon was more than 100 µM each time. Also, the TGI with NCI-H226 lung and in the assay on CCRF-CEM leukemia was more than 100 µM throughout.

`CC1(C)OC[C@@H]([C@@]2(CO[Si](C)(C)C(C)(C)C)CC=CC(=O)O2)O1`: the GI50 was 19 µM in the assay with UACC-62 melanoma; 28.3 µM in the assay with LOX IMVI melanoma; 24.1 µM in the assay with BT-549 breast; 20.6 µM in the assay on SF-539 CNS; 16.7 µM in the assay on A549 NSCLC; 18.6 µM with HCC-2998 colon. Moreover, the GI50 in the assay on CCRF-CEM leukemia was 26.2 µM. Besides, the TGI in the assay on UACC-62 melanoma was 44.6 µM; in the assay on LOX IMVI melanoma, more than 100 µM; in the assay on BT-549 breast, 47.8 µM; in the assay with SF-539 CNS it was 42.4 µM; with A549 NSCLC it was 47.5 µM; with HCC-2998 colon it was 34.1 µM. Further, the TGI in the assay with CCRF-CEM leukemia is more than 100 µM.

`CC(=O)C1CC2(c3ccc(C)cc3)C(c3ccc(C)cc3)=C(c3ccc(C)cc3)C1(c1ccc(C)cc1)S2=O` (stereo not drawn): the GI50 in the assay with UACC-62 melanoma, in the assay with LOX IMVI melanoma, with BT-549 breast, in the assay with SF-539 CNS, in the assay on A549 NSCLC and with HCC-2998 colon was more than 100 µM throughout. For the same compound, the GI50 with NCI-H226 lung and with CCRF-CEM leukemia was more than 100 µM each time. Moreover, the TGI in the assay with UACC-62 melanoma, in the assay with LOX IMVI melanoma, in the assay with BT-549 breast, with SF-539 CNS, in the assay with A549 NSCLC and with HCC-2998 colon was more than 100 µM in each case. Also, the TGI with NCI-H226 lung and in the assay with CCRF-CEM leukemia was more than 100 µM each time.

As for `Cc1ccccc1CN1CC2=C(CCN(Cc3ccccc3)C2=O)N2CCN=C12`, the TGI was more than 100 µM with UACC-62 melanoma; more than 100 µM with LOX IMVI melanoma; more than 100 µM in the assay on BT-549 breast; more than 14.1 µM with SF-539 CNS; more than 100 µM in the assay on A549 NSCLC; more than 70.6 µM with HCC-2998 colon. Moreover, the TGI with NCI-H226 lung and with CCRF-CEM leukemia was more than 100 µM throughout. In the assay with CCRF-CEM leukemia, the GI50 was 0.7 µM.

As for `CCCCCCCCCNCCCCCCCCC`, the GI50 in the assay on UACC-62 melanoma is 1.74 µM; in the assay with LOX IMVI melanoma it was 1.61 µM; in the assay with BT-549 breast it was 1.93 µM; with SF-539 CNS, 1.9 µM; with A549 NSCLC, 2.04 µM; with HCC-2998 colon, 1.69 µM. For the same compound, the GI50 in the assay with NCI-H226 lung is 1.83 µM. Besides, the TGI in the assay on UACC-62 melanoma was 3.35 µM; in the assay on LOX IMVI melanoma, 3.02 µM; with BT-549 breast it was 3.38 µM; in the assay on SF-539 CNS, 3.4 µM; with A549 NSCLC it was 4.08 µM; in the assay on HCC-2998 colon, 3.24 µM. Further, the TGI with NCI-H226 lung was 3.61 µM.

With `COc1cc(Cl)cc(-c2nn(C(=O)NCCN3CCN(C)CC3)cc2-c2ccncc2)c1`, the GI50 was 4.95 µM in the assay with UACC-62 melanoma; 18 µM in the assay with LOX IMVI melanoma; 3.37 µM in the assay on BT-549 breast; 2.84 µM in the assay on SF-539 CNS; 9.55 µM with A549 NSCLC; 17.5 µM in the assay on HCC-2998 colon. Moreover, the GI50 is 4.29 µM in the assay with NCI-H226 lung and 43 µM in the assay on CCRF-CEM leukemia. In addition, the TGI was 20.3 µM with UACC-62 melanoma; 46.2 µM in the assay with LOX IMVI melanoma; 18.6 µM in the assay with BT-549 breast; 22.6 µM in the assay on SF-539 CNS; more than 100 µM in the assay on A549 NSCLC; 39.1 µM with HCC-2998 colon. The TGI in the assay with NCI-H226 lung is 57.3 µM; with CCRF-CEM leukemia it was more than 100 µM.

The values above are taken from PubChem BioAssay (NCI).
